Measurements taken from patent US20110130390A1, “Use of COX-2 Inhibitors for the Treatment of Schizophrenia, Delusional Disorders, Affective Disorders, Autism or Tic Disorders” (priority 2001, published 2011).
One block for each compound: values may come before it.

Key:
DBA/2Ola mice = assay: Forced swim test; format: in vivo
Text: Various behavioral test paradigms have been developed for evaluating the antidepressant properties of novel drugs in animals. One of the most reliable and specific paradigm is the forced swim test which has been successfully used to determine the effectiveness of antidepressants, evaluate new pharmaceutical compounds and validate animal models of depression (Porsolt et al. (1977) Arch. Int. Pharmacodym. 229:327-336; Porsolt (2000) Rev. Neurosci. 11:53-58; Rénńric et al. (2002)Behav. Brain Res. 136:521-532; Page et al. (2003) Psychopharmacology 165:194-201; Kelliher et al. (2003) Psychoneuroendocrinology 28:332-347). The test consists of placing a mouse for a period of 5 minutes into a glass cylinder containing a water depth of at least 15 cm. Under such circumstances, a mouse cannot touch the bottom of the cylinder and is thus forced to swim. Time, latency and frequency of struggling/swimming versus floating are scored as behavioral parameters. Floating (i.e. movements made only for keeping balance and breath) can be interpreted as a depression-like behavior that reflects either a failure of persistent escape-directed behavior (i.e. behavioral despair) or the development of passive behavior that disengages the animal from active forms of coping with stress stimuli. By contrast, increased struggling (i.e. vigorous attempts to escape) and swimming indicates active coping behavior and can be interpreted as an opposite to depression-like behavior.
The antidepressant activity of rofecoxib was assessed in animals according to the forced swim test. Briefly, rofecoxib was given orally by gavage to mice either in a single acute administration of 10 mg or in a repetitive chronic administration of 4 mg per day (2 mg at 9:00 in the morning, 2 mg at 18:00 in the evening) for 28 days. Control animals received a negative control consisting of water only. The forced swim test was performed 4 hour after the last administration of rofecoxib. […] All observed results were confirmed statistically using the one-way ANOVA test.
(§1) The antidepressant activity of valdecoxib was assessed in DBA/2Ola mice according to the forced swim test. Briefly, chronic administration of valdecoxib was performed by oral gavage for 28 days at a concentration of 4 mg per day (2 mg at 9:00 in the morning, 2 mg at 18:00 in the evening) and 20 mg per day (10 mg at 9:00 in the morning, 10 mg at 18:00 in the evening). Control animals received a placebo consisting of water only. The behavior of individual animals was assessed using the forced swim test 24 hours after the last administration of valdecoxib. A pre-exposure of 5 minutes to the test was done 4 hours after the last administration of valdecoxib. All observed results were confirmed statistically using the one-way ANOVA test.
as §1, with “etoricoxib” for “valdecoxib”, “DBA/201a” for “DBA/2Ola”, “etoricoxib” for “chronic administration of valdecoxib”, “chronically administered to mice” for “performed”, “etoricoxib.” for “valdecoxib.”
The antidepressant activity of the COX-2 inhibitor Cimicoxib was assessed in DBA/2Ola mice using the forced swim test. Briefly, chronic administration of cimicoxib was performed by oral gavage to mice for 28 days at a concentration of 2 or 10 mg per kg bodyweight per day (1 or 5 mg at 9:00 in the morning, 1 or 5 mg at 18:00 in the evening). Control animals received a placebo consisting of water only. […]

depressed patients [1] = assay: Hamilton-Depression scale, 17-item version (HamD), celecoxib add-on to reboxetine trial; format: in vivo, human; details: 400 mg/day add-on to reboxetine, 6 weeks; ANOVA, Greenhouse-Geisser-corrected F=3.220; df 2.434; p=0.035; FIG. 10
depressed patients [2] = assay: Drop-outs and side-effects in the celecoxib add-on to reboxetine trial; details: celecoxib 400 mg/day add-on to reboxetine, n = 20
[3] = format: in vivo, human; details: FIG. 4
[4] = chronic oral gavage 28 days, 4 mg per day and 20 mg per day, test 24 hours after the last administration
[5] = chronic oral gavage 28 days, 2 or 10 mg per kg bodyweight per day, test 4 hours after the last administration, FIG. 9
[6] = chronic oral 4 mg per day for 28 days, test 4 hour after the last administration, FIG. 6
[7] = single acute oral administration of 10 mg, test 4 hour after administration, FIG. 6

Compound: etoricoxib
floating time (DBA/2Ola mice; [4]): decreasing
struggling or swimming times (DBA/2Ola mice; [4]): statistically increased or showed a tendency to increase

Compound: Cc1ccc(-c2cc(C(F)(F)F)nn2-c2ccc(S(N)(=O)=O)cc2)cc1 [celecoxib]
comparison of HamD scores during therapy with celecoxib or placebo (depressed patients [1]): advantage of celecoxib-group
PANSS items lack of contact, emotional isolation, passive-apathic isolation, social withdrawal, depression, motor retardation (schizophrenic patients; analysis of items discriminating good celecoxib-responders from the placebo group): therapeutic effects
PANSS items subsumed under the label agitation (schizophrenic patients; factor analysis, not seen with placebo): good therapeutic response
cardiovascular events or side-effects, clinically and by ECG surveillance (depressed patients [2]): no cardiovascular events or side-effects were observed
patients excluded or refusing further treatment due to a lack of therapeutic efficacy (depressed patients [2]): Five

Compound: Cc1nc2n(c(=O)c1CCN1CCC(c3noc4cc(F)ccc34)CC1)CCCC2 [risperidone]
differences in the plasma levels between risperidone-celecoxib and risperidone-placebo treatment [3]: without statistical significance

Compound: COc1ccc(-c2c(Cl)ncn2-c2ccc(S(N)(=O)=O)cc2)cc1F [cimicoxib]
floating time (DBA/2Ola mice; [5]): decrease
struggling or swimming times (DBA/2Ola mice; [5]): statistically significant increase

Compound: Cc1onc(-c2ccccc2)c1-c1ccc(S(N)(=O)=O)cc1 [valdecoxib]
floating time (DBA/2Ola mice; [4]): decreasing
struggling or swimming times (DBA/2Ola mice; [4]): statistically increased

differences in the plasma levels between risperidone-celecoxib and risperidone-placebo treatment [3]: without statistical significance
Compound: Cc1nc2n(c(=O)c1CCN1CCC(c3noc4cc(F)ccc34)CC1)CCCC2O (centres unmarked) [9-OH-risperidone]

Compound: rofecoxib
floating time (DBA/2Ola mice; [6]): decreasing
struggling or swimming times (DBA/2Ola mice; [6]): statistically increased
floating time (DBA/2Ola mice; [7]): decreasing
struggling or swimming times (DBA/2Ola mice; [7]): statistically increased
